Earlier results on 11 compounds are cited in patent publication US9370164B2, “Breeding, production, processing and use of specialty Cannabis” (Biotech Institute LLC, priority 2013, dated 2016).

The structures appear in SMILES notation. Read-outs that look alike come from different tables or passages of the source.

The conditions of data set [1]: for Proposed mechanism, Analgesic: post-operative pain.
For data set [2] the following is noted: for Pharmacological Action: Anti-emetic: indication: CIE; for Pharmacological Action: Antidepressant: indication: Depression; for Pharmacological Action: Intestinal Anti-prokinetic: indication: Diarrhea; for Pharmacological Action: Anti-epileptic: indication: Epilepsy; for Pharmacological Action: Vasorelaxant: indication: Glaucoma; for Pharmacological Action: Sedative: indication: Sleep disorders; for Pharmacological Action: Immunosuppressive: indications: Allergies, RA, IBS; for Pharmacological Action: Immunosuppressive / Pharmacological Action: Anti-inflammatory / Pharmacological Action: Neuroprotective: MS; for Pharmacological Action: Analgesic / Pharmacological Action: Anti-spasmodic: indications: MS; for Pharmacological Action: Analgesic: Post-operative pain, Migraine, Neuropathic pain, Sciatica; for Pharmacological Action: Anti-spasmodic: Spinal cord injury, Cerebral palsy; for Pharmacological Action: Anti-inflammatory: indications: Pain, Chron's, Arthritis; for Pharmacological Action: Anxiolytic: indications: Panic Disorder, Social Anxiety Disorder, Generalized Anxiety Disorder, PTSD; for Pharmacological Action: Neuroprotective: indications: Parkinson's, Alzheimer's, Stroke; for Pharmacological Action: Muscle relaxant: indication: MS; for Pharmacological Action: Bronchodialator: indications: Asthma, Sleep-related breathing disorders.

Turning to `C=C(C)[C@@H]1CCC(C)=C[C@H]1c1c(O)cc(CCCCC)cc1O` [CBD], in data set [1], the “Proposed mechanism, Analgesic” value is listed as “(+)TRPA1”; the “Proposed mechanism, Anti-epileptic” value was “(+)5HT1A”; the “Proposed mechanism, Vasorelaxant” value is reported as “(+)PPARg”. Besides, in data set [1] (Anti-psychotic), the “Proposed mechanism, Anti-psychotic” value was “(+)TRPV1”. Besides, in data set [1] (panic disorder), the “Proposed mechanism, Anxiolytic” value is recorded as “(+)5HT1A”. Besides, in data set [1] (social anxiety disorder), the “Proposed mechanism, Anxiolytic” value was “(+)CB1”. Also, the “Proposed mechanism, Intestinal Anti-prokinetic” value in data set [1] (Intestinal Anti-prokinetic) is reported as “(−)Ca1”. Also, in data set [2], the “Pharmacological Action: Anti-emetic” value was “✓”, the “Pharmacological Action: Antidepressant” value is recorded as “✓”, the “Pharmacological Action: Intestinal Anti-prokinetic” value was “✓” and the “Pharmacological Action: Anti-epileptic” value is reported as “✓”. In data set [2], the “Pharmacological Action: Vasorelaxant” value is listed as “✓”, the “Pharmacological Action: Sedative” value is “✓”, the “Pharmacological Action: Immunosuppressive” value is reported as “✓” and the “Pharmacological Action: Analgesic” value is given as “✓”. In data set [2], the “Pharmacological Action: Anti-spasmodic” value is on record as “✓”, the “Pharmacological Action: Anti-inflammatory” value was “✓”, the “Pharmacological Action: Anxiolytic” value is reported as “✓” and the “Pharmacological Action: Neuroprotective” value is recorded as “✓”.
As to `C=C(C)[C@H]1CC=C(C)CC1` [Limonene], in data set [2], the “Pharmacological Action: Antidepressant” value is reported as “✓” and the “Pharmacological Action: Anxiolytic” value is “✓”.
In the case of `C=C1CC/C=C(\C)CC[C@@H]2[C@@H]1CC2(C)C` [b-caryophyl.], the “Proposed mechanism, Anti-inflammatory” value in data set [1] is given as “PGE1”. The “Pharmacological Action: Anti-inflammatory” value in data set [2] is listed as “✓”.
On to `CCCCCc1cc(O)c(C/C=C(\C)CCC=C(C)C)c(O)c1` [CBG], for which, in data set [1], the “Proposed mechanism, Analgesic” value was “(+)TRPA1” and the “Proposed mechanism, Anti-proliferative” value is on record as “(−)TRPM8”. Besides, the “Proposed mechanism, Antidepressant” value in data set [1] (Antidepressant) is given as “(−)5HT1A”. In data set [2], the “Pharmacological Action: Antidepressant” value was “✓”, the “Pharmacological Action: Anti-epileptic” value is “✓”, the “Pharmacological Action: Muscle relaxant” value is recorded as “✓” and the “Pharmacological Action: Analgesic” value was “✓”. Besides, in data set [2], the “Pharmacological Action: Anti-spasmodic” value was “✓” and the “Pharmacological Action: Anxiolytic” value is listed as “✓”.
In the case of `C=CC(=C)CCC=C(C)C` [b-myrcene], the “Proposed mechanism, Anti-inflammatory” value in data set [1] is listed as “PGE2”. In addition, in data set [2], the “Pharmacological Action: Sedative” value was “✓”, the “Pharmacological Action: Analgesic” value is listed as “✓” and the “Pharmacological Action: Anti-inflammatory” value was “✓”.
On to `CCCCCc1cc(O)c2c(c1)OC(C)(C)[C@@H]1CCC(C)=C[C@@H]21` [THC], for which, in data set [1], the “Proposed mechanism, Anti-inflammatory” value was “(+)PPARg”; the “Proposed mechanism, Anti-proliferative” value is given as “(−)TRPM8”; the “Proposed mechanism, Vasorelaxant” value was “(+)PPARg”. Besides, the “Proposed mechanism, Appetite Stimulant” value in data set [1] (Appetite Stimulant) was “(+)PPARg”. Further, in data set [2], the “Pharmacological Action: Anti-emetic” value is “✓”, the “Pharmacological Action: Antidepressant” value was “✓”, the “Pharmacological Action: Intestinal Anti-prokinetic” value was “✓” and the “Pharmacological Action: Anti-epileptic” value is reported as “✓”. Moreover, in data set [2], the “Pharmacological Action: Vasorelaxant” value is given as “✓”, the “Pharmacological Action: Muscle relaxant” value is listed as “✓”, the “Pharmacological Action: Sedative” value is reported as “✓” and the “Pharmacological Action: Immunosuppressive” value was “✓”. In addition, in data set [2], the “Pharmacological Action: Bronchodialator” value is “✓”, the “Pharmacological Action: Analgesic” value is recorded as “✓”, the “Pharmacological Action: Anti-spasmodic” value is reported as “✓” and the “Pharmacological Action: Anti-inflammatory” value is given as “✓”. Moreover, in data set [2], the “Pharmacological Action: Anxiolytic” value is “✓” and the “Pharmacological Action: Neuroprotective” value was “✓”. The “Pharmacological Action: Appetite Stimulant” value in data set [2] (indications: Anorexia, Cachexia, AIDS wasting) was “✓”.
As for `CCCCCc1cc(O)c2c(c1)OC(C)(CCC=C(C)C)C=C2` (stereo not drawn) [CBC], in data set [2], the “Pharmacological Action: Analgesic” value is given as “✓” and the “Pharmacological Action: Anti-inflammatory” value is listed as “✓”.
Turning to `CC1=CCC2CC1C2(C)C` (stereo not drawn) [a-pinene], the “Proposed mechanism, Anti-inflammatory” value in data set [1] is on record as “PGE1”. In data set [2], the “Pharmacological Action: Bronchodialator” value is given as “✓” and the “Pharmacological Action: Anti-inflammatory” value is on record as “✓”.
In the case of `CCCCCc1cc(O)c2c(c1)OC(C)(C)c1ccc(C)cc1-2` [CBN], in data set [2], the “Pharmacological Action: Sedative” value is “✓” and the “Pharmacological Action: Analgesic” value was “✓”.
As for `C=CC(C)(O)CCC=C(C)C` (stereo not drawn) [Linalool], the “Proposed mechanism, Anti-epileptic” value in data set [1] is “anti-Glu”. In addition, in data set [2], the “Pharmacological Action: Anti-epileptic” value was “✓”, the “Pharmacological Action: Sedative” value was “✓”, the “Pharmacological Action: Analgesic” value was “✓” and the “Pharmacological Action: Anxiolytic” value is recorded as “✓”.
In the case of `CCCc1cc(O)c2c(c1)OC(C)(C)[C@@H]1CCC(C)=C[C@@H]21` [THCV], the “Proposed mechanism, Anti-epileptic” value in data set [1] was “(−)CB1”. Also, in data set [2], the “Pharmacological Action: Anti-epileptic” value is on record as “✓”.
